Where two headings read alike, the source gives them in different places.
Experiments:
Type in all cases: cell-based
[1] = system: Candida albicans (ATCC 10231); experiment: Stand-alone biocidal test without organic soil; conditions: Candida albicans, read-out: Stand-alone biocidal result (microbial log reduction) C. albicans
Procedure: (§1) A test was conducted to study the microbiocidal efficacy of a solution containing a quaternary ammonium ester of the present invention employing borate buffered saline (BBS). The antimicrobial efficacy of each of the various compositions for the chemical disinfection of contact lenses was evaluated. Microbial challenge inoculums were prepared using Pseudomonas aeruginosa (ATCC 9027), Staphylococcus aureus (ATCC 6538), Serratia marcescens (ATCC 13880), Candida albicans (ATCC 10231) and Fusarium solani (ATCC 36031). The test organisms were cultured on appropriate agar and the cultures were harvested using sterile DPBST (Dulbecco's Phosphate Buffered Saline plus 0.05 percent weight/volume polysorbate 80) or a suitable diluent and transferred to a suitable vessel. Spore suspensions were filtered through sterile glass wool to remove hyphal fragments. Serratia marcescens, as appropriate, was filtered through a 1.2 mμ filter to clarify the suspension. After harvesting, the suspension was centrifuged at no more than 5000×g for a maximum of 30 minutes at 20 to 25° C. The supernatant was poured off and resuspended in DPBST or other suitable diluent. The suspension was centrifuged a second time, and resuspended in DPBST or other suitable diluent. All challenge bacterial and fungal cell suspensions were adjusted with DPBST or other suitable diluent to 1×10^7 to 1×10^8 cfu/ml. The appropriate cell concentration may be estimated by measuring the turbidity of the suspension, for example, using a spectrophotometer at a preselected wavelength, for example 490 nm. One tube was prepared containing a minimum of 10 ml of test solution per challenge organism. Each tube of the solution to be tested was inoculated with a suspension of the test organism sufficient to provide a final count of 1×10^5 to 1×10^6 cfu/ml, the volume of the inoculum not exceeding 1 percent of the sample volume. Dispersion of the inoculum was ensured by vortexing the sample for at least 15 seconds. The inoculated product was stored at 10 to 25° C. Aliquots in the amount of 1.0 ml were taken of the inoculated product for determination of viable counts after certain time periods of disinfection. The time points for the bacteria were, for example, 1, 2, 3 and 4 hours when the proposed regimen soaking time was four hours. Yeast and mold were tested at an additional timepoint of 16 hours (4 times the regimen time). The suspension was mixed well by vortexing vigorously for at least 5 seconds. The 1.0 ml aliquots removed at the specified time intervals were subjected to a suitable series of decimal dilutions in validated neutralizing media. The suspensions were mixed vigorously and incubated for a suitable period of time to allow for neutralization of the microbial agent at room temperature. The viable count of organisms was determined in appropriate dilutions by preparation of triplicate plates of trypticase soy (TSA) agar for bacteria and Sabouraud dextrose agar (SDA) for mold and yeast. The bacterial recovery plates were incubated at 30 to 35° C. for two to four days. The yeast was incubated at 20 to 30° C. for two to four days and mold recovery plates were incubated at 20 to 25° C. for three to seven days. The average number of colony forming units was determined on countable plates. Countable plates refer to 30 to 300 cfu/plates for bacteria and yeast, and 8 to 80 cfu/plate for mold except when colonies are observed only for the 10^0 or 10^−1 dilution plates. The microbial reduction was then calculated at the specified time points. […] Following inoculation in a validated neutralizing broth and incubation for an appropriate period of time, the inoculum control must be between 1.0×10^5 to 1.0×10^6 cfu/ml. […]

[2] = system: Pseudomonas aeruginosa (ATCC 9027); experiment: Stand-alone biocidal test without organic soil; conditions: 25 ppm in BBS, without organic soil
Procedure: as §1

[3] = system: Serratia marcescens (ATCC 13880); experiment: Stand-alone biocidal test without organic soil; conditions: 25 ppm in BBS, without organic soil
Procedure: as §1

[4] = system: Acanthamoeba polyphaga strain Ros cysts; experiment: Acanthamoeba contact lens disinfectant challenge test assay; conditions: 25 ppm
Procedure: Acanthamoeba polyphaga strain Ros were used in this study. Trophozoites were maintained at 30° C. in an axenic broth medium composed of 20.0 g Biosate™ (Becton Dickinson, United Kingdom), 5.0 g glucose, 0.3 g KH2PO4, 10 μg vitamin B12 and 15.0 mg L-methionine per litre of deionized water. The pH was adjusted to 6.5-6.6 with 1 M NaOH before autoclaving at 121° C. for 12 minutes. Penicillin and streptomycin were added to a final concentration of 150 μ/ml before use.
Cysts were prepared from trophozoite cultures using the axenic medium supplemented with 50 mM MgCl2. The encystment medium was inoculated with approximately 2×10^5 /ml trophoxoites for culture at 30° C. in a shaking incubator (100 rpm) for 7 days. Cells were enumerated using haemocytometer counting.
The challenge test assay protocol, as described by R. Hughes and S. Kilvington, Comparison of Hydrogen Peroxide Contact Lens Disinfection Systems and Solutions Against Acanthamoeba Polyphaga, Antimicrob. Agents Chemother. 45: 2038-2043, (2001), is set forth in detail below. The number of surviving organisms was calculated as described by L. J. Reed and H. Muench, A Simple Method for Estimating Fifty Percent Endpoints, Am. J. Hyg., 27: 493-497, (1938). Statistical analysis of the data was by One Way Analysis Of Variance (ANOVA).
1. Fifty ml polypropylene centrifuge tubes were aged overnight with 15 ml of disinfectant solution, i.e., ReNue™ 02 (Bausch & Lomb, Rochester, N.Y.). The tubes were then drained, the disinfectant solution discarded, and refilled with 10 ml of fresh disinfectant solution for testing.
2. To a flat-bottomed, 96 well microtitre plate having 8 columns labelled “A” through “H”, 180 μl of neutralizer, i.e., 0.1 percent Tween™ 80 (Baker, Inc., Phillipsburg, N.J.) in one-quarter strength Ringer's solution for biguanide based disinfectants, was added to the outer wells of columns A and H. 180 μl of one-quarter strength Ringer's solution was then added to the remaining inner wells of columns B through G.
3. Amoebae were adjusted to 5×10^6 /ml in one-quarter strength Ringer's solution and 100 μl (5×10^5) was added to 10 ml of disinfectant (5×10^4 /ml) or saline control.
4. At time intervals of 0, 1, 2, 3, 4, 6 and 24 hours:
i. vortexed tubes 5 seconds;
ii. in quadruplet, removed 20 μl (1000 cells) and added to neutralizer wells for the given time-point (i.e., column A, rows 9-12) and made serial 10-fold dilutions across the microtitre plate (i.e., to column D, rows 9-12); and
iii. repeated for each time point.
5. One drop of live E. coli from 3 ml pastette (25 μl of approximately 5×10^7 bacteria/ml) was then added to each well.
6. The plate was then incubated at 32° C. for up to 7 days.
7. The plate was inspected daily for 7 days for the presence of amoebal growth, either trophozoite replication or excystment and trophozoite replication, in the wells.
8. The number of surviving organisms was then estimated at each time interval by Reed and Muench computation and set forth below in Table 3.

For `CCCCCCCCCCCCCC(=O)OCCC[N+](C)(C)Cc1ccccc1` [Compound 1, N-myristoyloxypropyl-N-benzyl-N,N-dimethylammonium chloride], the log reduction at 25 ppm ([1]; ATCC10231, 1 h) was 3.6, the log reduction at 25 ppm ([1]; ATCC10231, 4 h) was > 4.8 and the “Stand-alone biocidal result (microbial log reduction) P. aeruginosa” value ([2]; 1 hr.) was >4.7. For the same compound, the “Stand-alone biocidal result (microbial log reduction) P. aeruginosa” value ([2]; 4 hr.) was >4.7, the “Stand-alone biocidal result (microbial log reduction) S. marcescens” value ([3]; 1 hr.) was 4.8 and the “Stand-alone biocidal result (microbial log reduction) S. marcescens” value ([3]; 4 hr.) was >4.8. For the same compound, the “Amoebae Log Kill, Cysts” value ([4]; 1 Hr.) was 3.30 Log and the “Amoebae Log Kill, Cysts” value ([4]; 4 Hr.) was 3.30 Log.

Reference: patent US20040115160A1, “Quaternary ammonium esters for disinfection and preservation” (priority 2002, published 2004)
